# Data taken from patent US20260308159A1, “BICYCLIC HETEROARYLAMIDES HAVING GPR68 MODULATING ACTIVITY” (RECURSION PHARMACEUTICALS, INC., priority 2023, published 2026).
# Molecular target: T1, human GPR68 (Homo sapiens, UniProt Q15743)
# T1 construct: encoding full-length human GPR68 (uniprot ID: Q15743); expressed in transfected cells; host or cells: HEK293T
# Assay: GPR68 Biochemical Assay (Promega GloSensor cAMP assay, GPR68 antagonism)
# Type: cell-based
# Details: HEK293T cells transiently expressing hGPR68, antagonism of pH 5.5 stimulated cAMP, 15 min, read-out: hGPR68 IC50
# Summary of the method: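 Readout is GloSensor cAMP luminescence after 15 min at room temperature, normalised between pH 5.5 stimulation and pH 8.0 minimum controls; IC50 fitted sigmoidally. Test compounds, up to 50 μM final (9-point half-log, 0.5% DMSO), were co-added with pH 5.5 buffer to HEK293T cells transiently expressing full-length human GPR68 plus GloSensor.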
# T1 sequence (Q15743 whole entry): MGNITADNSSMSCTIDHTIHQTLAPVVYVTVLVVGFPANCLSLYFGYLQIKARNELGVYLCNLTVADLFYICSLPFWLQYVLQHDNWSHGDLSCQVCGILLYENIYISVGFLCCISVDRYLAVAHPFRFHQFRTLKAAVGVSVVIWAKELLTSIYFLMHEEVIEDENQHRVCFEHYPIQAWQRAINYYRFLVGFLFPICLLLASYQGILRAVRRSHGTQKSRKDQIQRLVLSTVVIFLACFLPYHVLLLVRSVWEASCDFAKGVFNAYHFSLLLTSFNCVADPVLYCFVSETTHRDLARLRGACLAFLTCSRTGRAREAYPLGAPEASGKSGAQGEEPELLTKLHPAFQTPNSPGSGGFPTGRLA
row,IC50 [nM],Structure (SMILES)
1,500 to 5000,"COCc1nn2c(C(=O)NC3CCC34CC(F)(F)C4)ccnc2c1C(N)=O (stereo not shown) [Compound 131, N7-(2,2-difluorospiro[3.3]heptan-7-yl)-2-(methoxymethyl)pyrazolo[1,5-a]pyrimidine-3,7-dicarboxamide]"
2,500 to 5000,"CN(C)c1nn2c(C(=O)NC3CC(F)(F)C3)ccnc2c1C(N)=O [Compound 35, N7-(3,3-difluorocyclobutyl)-2-(dimethylamino)pyrazolo[1,5-a]pyrimidine-3,7-dicarboxamide]"
3,50 to 500,"COCc1nn2c(C(=O)NC3COc4ccccc4C3)ccnc2c1C(N)=O (stereo not shown) [Compound 78, N7-chroman-3-yl-2-(methoxymethyl)pyrazolo[1,5-a]pyrimidine-3,7-dicarboxamide]"
4,500 to 5000,"Cc1nn2c(C(=O)NC3Cc4cccnc4C3)ccnc2c1C(N)=O (stereo not shown) [Compound 49, N7-(6,7-dihydro-5H-cyclopenta[b]pyridin-6-yl)-2-methyl-pyrazolo[1,5-a]pyrimidine-3,7-dicarboxamide]"
5,50000 to 100000,"NC(=O)c1cnn2c(C(=O)NC3CCc4ccncc4C3)ccnc12 (stereo not shown) [Compound 13, N7-(5,6,7,8-tetrahydroisoquinolin-7-yl)pyrazolo[1,5-a]pyrimidine-3,7-dicarboxamide]"
6,5000 to 50000,"C[C@]1(F)C[C@H](NC(=O)c2ccnc3c(C(N)=O)cnn23)C1 [Compound 7, N7-(trans-3-fluoro-3-methyl-cyclobutyl)pyrazolo[1,5-a]pyrimidine-3,7-dicarboxamide]"
7,< 50,"COCc1nn2c(C(=O)NC3Cc4ccc(F)cc4C3)ccnc2c1C(N)=O (stereo not shown) [Compound 194, N7-(5-fluoroindan-2-yl)-2-(methoxymethyl)pyrazolo[1,5-a]pyrimidine-3,7-dicarboxamide]"
8,50 to 500,"Cc1nn2c(C(=O)N[C@H]3C[C@@H](OC(F)(F)F)C3)ccnc2c1C(N)=O [Compound 53, 2-methyl-N7-[cis-3-(trifluoromethoxy)cyclobutyl]pyrazolo[1,5-a]pyrimidine-3,7-dicarboxamide]"
9,< 50,"NC(=O)c1c(C2CC2)nn2c(C(=O)NC3Cc4cscc4C3)ccnc12 [Compound 134, 2-cyclopropyl-N7-(5,6-dihydro-4H-cyclopenta[c]thiophen-5-yl)pyrazolo[1,5-a]pyrimidine-3,7-dicarboxamide]"
10,50 to 500,"COCc1nn2c(C(=O)NC3CCC(F)(F)CC3F)ccnc2c1C(N)=O (mixture of isomers) [Compound 154, 2-(methoxymethyl)-N7-(2,4,4-trifluorocyclohexyl)pyrazolo[1,5-a]pyrimidine-3,7-dicarboxamide]"
11,500 to 5000,"COCc1nn2c(C(=O)NCc3cnn(C)c3)ccnc2c1C(N)=O [Compound 63, 2-(methoxymethyl)-N7-[(1-methylpyrazol-4-yl)methyl]pyrazolo[1,5-a]pyrimidine-3,7-dicarboxamide]"
12,50 to 500,"Cc1nn2c(C(=O)NC3CC(F)(F)C3)ccnc2c1C(N)=O [Compound 48, N7-(3,3-difluorocyclobutyl)-2-methyl-pyrazolo[1,5-a]pyrimidine-3,7-dicarboxamide]"
13,50 to 500,"COCc1nn2c(C(=O)N[C@H]3CC(C)(C)c4ccccc43)ccnc2c1C(N)=O [Compound 198, 2-(methoxymethyl)-N7-[(1S)-3,3-dimethylindan-1-yl]pyrazolo[1,5-a]pyrimidine-3,7-dicarboxamide]"
14,500 to 5000,"COCc1nn2c(C(=O)NC3CCc4cncn4C3)ccnc2c1C(N)=O (stereo not shown) [Compound 188, 2-(methoxymethyl)-N7-(5,6,7,8-tetrahydroimidazo[1,5-a]pyridin-6-yl)pyrazolo[1,5-a]pyrimidine-3,7-dicarboxamide]"
15,50 to 500,"Cc1nc2c(C(=O)NC3CC(F)(F)C3)ccnn2c1C(N)=O [Compound 26, N8-(3,3-difluorocyclobutyl)-2-methyl-imidazo[1,2-b]pyridazine-3,8-dicarboxamide]"
16,500 to 5000,"Cc1nn2c(C(=O)NC3CC(F)(F)C3)c(-c3cn[nH]c3)cnc2c1C(N)=O [Compound 32, N7-(3,3-difluorocyclobutyl)-2-methyl-6-(1H-pyrazol-4-yl)pyrazolo[1,5-a]pyrimidine-3,7-dicarboxamide]"
17,50 to 500,"COCc1nn2c(C(=O)NC3CCc4ncsc4C3)ccnc2c1C(N)=O (stereo not shown) [Compound 190, 2-(methoxymethyl)-N7-(4,5,6,7-tetrahydro-1,3-benzothiazol-6-yl)pyrazolo[1,5-a]pyrimidine-3,7-dicarboxamide]"
18,50 to 500,"COCc1nn2c(C(=O)NC3CCCCC3)ccnc2c1C(N)=O [Compound 76, N7-cyclohexyl-2-(methoxymethyl)pyrazolo[1,5-a]pyrimidine-3,7-dicarboxamide]"

# Second part, the molecule before the results:
row,Structure (SMILES),IC50 [nM]
1,"COCc1nn2c(C(=O)NC3COc4c(F)cc(F)cc43)ccnc2c1C(N)=O (stereo not shown) [Compound 191, N7-(5,7-difluoro-2,3-dihydrobenzofuran-3-yl)-2-(methoxymethyl)pyrazolo[1,5-a]pyrimidine-3,7-dicarboxamide]",< 50
2,"COCc1nn2c(C(=O)NCc3ccc(F)cc3)ccnc2c1C(N)=O [Compound 70, N7-[(4-fluorophenyl)methyl]-2-(methoxymethyl)pyrazolo[1,5-a]pyrimidine-3,7-dicarboxamide]",< 50
3,"COCc1nn2c(C(=O)N[C@@H]3CCOc4cc(F)ccc43)ccnc2c1C(N)=O [Compound 166, N7-[(4R)-7-fluorochroman-4-yl]-2-(methoxymethyl)pyrazolo[1,5-a]pyrimidine-3,7-dicarboxamide]",< 50
4,"COCc1nn2c(C(=O)NC3Cc4ccccc4C3)ccnc2c1C(=O)O [Compound 143, 7-(indan-2-ylcarbamoyl)-2-(methoxymethyl)pyrazolo[1,5-a]pyrimidine-3-carboxylic Acid]",50 to 500
5,"COCc1nn2c(C(=O)NC3(c4ccc(F)cc4)CC3)ccnc2c1C(N)=O [Compound 127, N7-[1-(4-fluorophenyl)cyclopropyl]-2-(methoxymethyl)pyrazolo[1,5-a]pyrimidine-3,7-dicarboxamide]",50 to 500
6,"COCc1nn2c(C(=O)NC3CCC(F)(F)CC3)cc(C)nc2c1C(N)=O [Compound 240, N7-(4,4-difluorocyclohexyl)-2-(methoxymethyl)-5-methyl-pyrazolo[1,5-a]pyrimidine-3,7-dicarboxamide]",< 50
7,"NC(=O)c1c(C2CC2)nn2c(C(=O)N[C@H]3CCOc4cc(F)ccc43)ccnc12 [Compound 113, 2-cyclopropyl-N7-[(4S)-7-fluorochroman-4-yl]pyrazolo[1,5-a]pyrimidine-3,7-dicarboxamide]",< 50
8,"COCc1nn2c(C(=O)Nc3cc(C)cc(C)n3)ccnc2c1C(N)=O [Compound 64, N7-(4,6-dimethyl-2-pyridyl)-2-(methoxymethyl)pyrazolo[1,5-a]pyrimidine-3,7-dicarboxamide]",< 50
9,"NC(=O)c1c(C2CC2)nn2c(C(=O)NC3CCS(=O)(=O)c4ccccc43)ccnc12 (stereo not shown) [Compound 229, 2-cyclopropyl-N7-(1,1-dioxo-3,4-dihydro-2H-thiochromen-4-yl)pyrazolo[1,5-a]pyrimidine-3,7-dicarboxamide]",< 50
10,"COCc1nn2c(C(=O)Nc3ccc(CN(C)C)cc3)ccnc2c1C(N)=O [Compound 62, N7-[4-[(dimethylamino)methyl]phenyl]-2-(methoxymethyl)pyrazolo[1,5-a]pyrimidine-3,7-dicarboxamide]",500 to 5000
11,"NC(=O)c1c(C2CC2)nc2c(C(=O)NC3CC(F)(F)c4ccccc43)ccnn12 (stereo not shown) [Compound 209, 2-cyclopropyl-N8-(3,3-difluoroindan-1-yl)imidazo[1,2-b]pyridazine-3,8-dicarboxamide]",< 50
12,"COCc1nn2c(C(=O)N[C@H]3CCOc4ccccc43)ccnc2c1C(N)=O [Compound 172, N7-[(4S)-chroman-4-yl]-2-(methoxymethyl)pyrazolo[1,5-a]pyrimidine-3,7-dicarboxamide]",50 to 500
13,"CNC(=O)c1c(-c2ccccc2)nn2c(C(=O)NC3Cc4ccccc4C3)cccc12 [Compound 40, N7-indan-2-yl-N3-methyl-2-phenyl-pyrazolo[1,5-a]pyridine-3,7-dicarboxamide]",50000 to 100000
14,"COCc1nc2c(C(=O)NC3Cc4cc(F)cc(F)c4C3)ccnn2c1C(N)=O (stereo not shown) [Compound 164, N8-(4,6-difluoroindan-2-yl)-2-(methoxymethyl)imidazo[1,2-b]pyridazine-3,8-dicarboxamide]",< 50
15,"COCc1nn2c(C(=O)Nc3cc(C(F)(F)F)ccn3)ccnc2c1C(N)=O [Compound 65, 2-(Methoxymethyl)-N7-[4-(trifluoromethyl)-2-pyridyl]pyrazolo[1,5-a]pyrimidine-3,7-dicarboxamide]",50 to 500
16,"NC(=O)c1c(C2CC2)nn2c(C(=O)NC3CS(=O)(=O)c4ccccc43)ccnc12 (stereo not shown) [Compound 231, 2-cyclopropyl-N7-(1,1-dioxo-2,3-dihydrobenzothiophen-3-yl)pyrazolo[1,5-a]pyrimidine-3,7-dicarboxamide]",< 50

# Same assay, conditions: hGPR68 IC50, HEK293T cells transiently expressing hGPR68, antagonism of pH 5.5 stimulated cAMP, 15 min
row,IC50 [nM],Structure (SMILES)
1,< 50,"CC(C)OCc1nn2c(C(=O)NC3Cc4ccccc4C3)ccnc2c1C(N)=O [Compound 27, N7-indan-2-yl-2-(isopropoxymethyl)pyrazolo[1,5-a]pyrimidine-3,7-dicarboxamide]"
2,< 50,"COCc1nn2c(C(=O)Nc3ccc(C(F)(F)F)cn3)ccnc2c1C(N)=O [Compound 59, 2-(methoxymethyl)-N7-[5-(trifluoromethyl)-2-pyridyl]pyrazolo[1,5-a]pyrimidine-3,7-dicarboxamide]"
3,50 to 500,"COCc1nn2c(C(=O)N[C@H]3C[C@](C)(F)C3)ccnc2c1C(N)=O [Compound 94, N7-(trans-3-fluoro-3-methyl-cyclobutyl)-2-(methoxymethyl)pyrazolo[1,5-a]pyrimidine-3,7-dicarboxamide]"
